According to patent US20220362299A1, “ENGINEERED NATURAL KILLER CELLS AND METHODS FOR USING THE SAME IN IMMUNOTHERAPY AND AUTOPHAGY INHIBITON TECHNIQUES” (Purdue Research Foundation, priority 2019, published 2022):
pIC50: −log10 of the molar value. Where two headings read alike, the source gives them in different places.

How the values were obtained:
CD73 = CD73 activity of GBM43 cells (AMP hydrolysis, malachite green phosphate assay); assay type: cell-based, human; conditions: various concentrations of CQ, 24 h
Protocol: To test for CD73 activity and its ability to generate adenosine, GBM43 cells were seeded at 2×10^4 cells per well in a 96-well plate in complete DMEM. After overnight incubation, GBM43 cells were incubated with anti-CD73 scFv following uPA (100 nM)-mediated cleavage from either CD73.mCAR-NK92 or CD73.mCAR-pNK cells during incubation for 6 hours. Then, the cell medium was removed and cells were rinsed three times with phosphate-free buffer (117 mM NaCl, 5.3 mM KCl, 1.8 mM MgCl2, 26 mM NaHCO3, 10 mM glucose, pH 7.4, diluted in ddH2O). AMP (250 μM final), diluted in phosphate-free buffer, was added and incubated for 10 min at 37° C. Finally, the phosphate (Pi) concentrations resulting from AMP hydrolysis were measured using a malachite green phosphate assay kit following the manufacturer's instructions.

GBM43 cells [1] = assay: GBM43 cell viability after CQ treatment (CCK-8); assay type: cell-based, human; conditions: 24 h
Protocol: Alternatively, autophagy was inhibited pharmacologically via treatment with chloroquine (CQ), a common FDA-approved autophagy inhibitor (see FIG. 11). These targeting approaches were tested on both NK cell infiltration and effector functions. For this approach, GBM43 cells were treated with different concentrations of CQ. To determine in vitro cell viability in response to CQ, GBM43 cells were seeded in 96-well plates at a density of 1×10^4 cells/well. After overnight culture, the cells were treated with different concentrations of CQ and incubated for another 24 hours. The cell viability was then determined with CCK-8 assay analysis.

GBM43 cells [2] = assay: Chemokine mRNA in GBM43 cells by RT-PCR; assay type: cell-based, human; conditions: vs control
Protocol: Total RNAs were extracted using the mirVana™ miRNA Isolation Kit and the concentrations determined with a Qubit 4 Fluorometer. The RNA (80 ng) from each sample was reverse-transcribed using the qScript™ One-Step SYBR® Green qRT-PCR kit in a ViiA-7 RT-PCR system (Thermo Fisher Scientific, Waltham, Mass.). The GAPDH gene was used as the endogenous control. The comparative Ct values of genes of interest were normalized to the Ct value of GAPDH. The 2^−Δct method was used to determine the relative expression of the genes, while the 2^−ΔΔct method was used to calculate fold changes of gene expression over control.

GBM43 cells [3] = assay: ELISA of CCL5 and CXCL10 in supernatant of GBM43 cells; assay type: cell-based, human; conditions: CQ 50 μM, 24 h
From the text: To evaluate changes in the protein levels of these chemokines and gain more insight into the underlying molecular mechanisms, chemokine concentrations were quantified in the conditioned media of CQ-treated GBM43 cells using ELISA in absence and presence of various pharmacological inhibitors driving signaling pathways for these chemokines. This included the PI3K inhibitor LY294002, NF-κB inhibitor BAY11-7082 and JNK inhibitor SP600125.
More specifically, to measure secreted CCL5 and CXCL10, GBM43 cells were treated with CQ at a final concentration of 50 μM in presence or absence of various small molecule inhibitors, including LY294002, BAY11-7082 and SP600125 for 24 hours. Supernatants were collected and the levels of CCL5 and CXCL10 were quantified using Human CCL5 and CXCL10 Biolegend-ELISA MAX™ Deluxe Sets according to the manufacturer's directions. To look at the levels of multiple chemokines secretion from GBM43 cells, the cell culture supernatants were also collected and all the selected targets were determined with the chemokine array provided by Eve Technologies (Calgary, Canada).

GBM43 cells [4] = assay: Killing of CQ-treated GBM43 cells by pNK cells; assay type: cell-based, human; conditions: E/T ratio 5, 4 h
Protocol: GBM43 cells were first treated with CQ (varying concentrations), then collected and re-seeded into 96 wells. After overnight culture, the NK cells (NK92 control cells and pNK cells against BECN1^−GBM43) were added at an E/T ratio of 5 and co-incubated for 4 h.
To further investigate the impact of the inhibition of autophagy on the cytotoxic capacity of NK cells, CQ-treated GBM43 cells or BECN1^− GBM43 cells were incubated with pNK cells for 4 h at an E/T ratio of 5.

GBM43-Luc cells = assay: Orthotopic GBM43 (Luc) xenograft model; assay type: in vivo, NSG mice
Protocol: Additionally, orthotopic GBM xenografts were generated using NSG mice as previously described. Briefly, on day 0, the GBM43 (Luc) cells (1×10^5) were stereotactically implanted into the right forebrain through a digitalized stereotactic delivery system. […] CD73.mCAR-pNK cells were administered once a week for three weeks. Tumor volumes were monitored and recorded using the Spectral Ami Optical imaging system. Body weights of the mice were also recorded during the treatment period. At the end of the treatment, the mice were sacrificed and whole brain tissues from each mouse were harvested for adenosine measurement and IHC/IF analyses.
Immunohistochemistry (IHC) and immunofluorescence (IF) staining were carried out at the Histology Research Laboratory at the Purdue University College of Veterinary Medicine (West Lafayette, Ind.). Briefly, the tumors were fixed in 10% neutral-buffered formalin, embedded in paraffin, and cut into 3-5 μm sections.
For intracranial GBM xenografts, the NK cells in tumors were detected through the staining using human NKp46/NCR1 antibody. CCL5 and CXCL10 expression in the tumors were detected through the staining using human CCL5/RANTES antibody and CXCL10 antibody, respectively. CD73 expression in the tumors was detected through the staining using human CD73 antibody.
In addition to the foregoing, intratumoral adenosine concentrations were also assessed. Brain tissues were harvested post-treatment, rinsed with cold PBS and homogenized in PBS. After that, the suspension was centrifuged at 10,000 g for 10 minutes at 4° C. and the supernatant was collected. Adenosine concentrations were determined using an Adenosine Assay Kit according to the manufacturer's directions. The IHC staining was performed as described above.

GBM = conditions: chronic administration, controlled randomized trial / Phase III, diphosphate salt, cited from earlier work

Substance: Chloroquine diphosphate salt [CQ]
- production of adenosine in GBM cells mediated by CD73 (CD73): significantly reduced
- pIC50 (GBM43 cells [1]): 4.17
- CCL5 mRNA in GBM43 cells (GBM43 cells [2]; CQ-treated): substantial upregulation
- CXCL10 mRNA in GBM43 cells (GBM43 cells [2]; CQ-treated): substantial upregulation
- CCL2 mRNA in GBM43 cells (GBM43 cells [2]; inhibition of autophagy): decreased transcriptional levels
- CXCL12 mRNA in GBM43 cells (GBM43 cells [2]; inhibition of autophagy): decreased transcriptional levels
- secreted CCL5 vs untreated control cells (GBM43 cells [3]): significantly higher amounts
- secreted CXCL10 vs untreated control cells (GBM43 cells [3]): significantly higher amounts
- killing of CQ-treated GBM43 cells by human NK cells (GBM43 cells [4]): sensitize GBM cells to superior killing
- tumor growth (bioluminescence imaging) (GBM43-Luc cells; CQ 50 mg/kg IP, CD73.mCAR-pNK intracranial, weekly for three weeks, vs control group): no significant effect
- CCL5 expression in tumor tissues (IHC) (GBM43-Luc cells; mouse, in vivo): robustly up-regulated
- CXCL10 expression in tumor tissues (IHC) (GBM43-Luc cells; mouse, in vivo): robustly up-regulated
- crossing of the blood-brain barrier in vivo (GBM43-Luc cells; mouse, in vivo): able to cross the blood-brain barrier
- response of GBM to antineoplastic therapy with added chloroquine (GBM): enhance clinical responses
- response of GBM to antineoplastic therapy with added chloroquine (GBM; listed as chloroquine (CQ)): significantly enhanced response
